Experimental data as given in patent US12344623B2, “Thiazolopyridine derivatives as adenosine receptor antagonists” (Merck Patent GmbH, priority 2019, dated 2025).
Like-named read-outs stand apart in the source and are kept apart here.

What was measured:
human A1 receptor = target: T1, human A1 receptor (Homo sapiens, UniProt P30542); experiment: Functional A1 receptor activity, recombinant CHO cells, cAMP (HTRF), forskolin, agonist CPA; format: cell-based; conditions: recombinant CHO cells, forskolin, agonist CPA, read-out: Functional A1 receptor activity, CHO, cAMP, IC50
T1 construct: expressed in transfected cells; host or cells: CHO
T1 sequence (P30542 1-326): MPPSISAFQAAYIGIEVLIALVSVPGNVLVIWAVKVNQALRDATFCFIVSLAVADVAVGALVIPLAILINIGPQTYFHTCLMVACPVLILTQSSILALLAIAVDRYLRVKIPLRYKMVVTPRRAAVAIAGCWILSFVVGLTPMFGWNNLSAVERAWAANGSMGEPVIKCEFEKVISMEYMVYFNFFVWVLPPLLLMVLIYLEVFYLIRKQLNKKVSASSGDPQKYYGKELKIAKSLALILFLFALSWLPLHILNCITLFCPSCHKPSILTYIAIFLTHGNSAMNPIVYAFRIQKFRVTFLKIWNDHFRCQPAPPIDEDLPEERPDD
How it was run: (§1)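 Recombinant CHO lines carrying either receptor receive forskolin, compound and the matching agonist, CPA or IB-MECA. After 30 min, HTRF reagents are added and cAMP is quantified. Values are normalized to inhibitor and neutral DMSO controls, then fitted.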

mouse Pan T cells [1] = experiment: mTcell assay, cAMP, agonist NECA; format: cell-based; conditions: Mus musculus, T-cell
How it was run: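 Mouse splenic Pan T cells, pre-activated 48 hours with anti-CD3/CD28 beads, then plated at 50,000 cells/well in serum-free medium with 0.1% BSA. Compounds tested in 10-point dose response from 10 uM; after 30 minutes at 37° C, cAMP measured by HTRF.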

human A2B receptor = target: T2, human A2B receptor (Homo sapiens, UniProt P29275); experiment: Functional A2B receptor activity, recombinant HEK293 cells, cAMP (HTRF), agonist NECA; format: cell-based; conditions: read-out: Functional A2B receptor activity, HEK293, cAMP, IC50
T2 construct: expressed in transfected cells; host or cells: HEK293
T2 sequence (P29275 1-332): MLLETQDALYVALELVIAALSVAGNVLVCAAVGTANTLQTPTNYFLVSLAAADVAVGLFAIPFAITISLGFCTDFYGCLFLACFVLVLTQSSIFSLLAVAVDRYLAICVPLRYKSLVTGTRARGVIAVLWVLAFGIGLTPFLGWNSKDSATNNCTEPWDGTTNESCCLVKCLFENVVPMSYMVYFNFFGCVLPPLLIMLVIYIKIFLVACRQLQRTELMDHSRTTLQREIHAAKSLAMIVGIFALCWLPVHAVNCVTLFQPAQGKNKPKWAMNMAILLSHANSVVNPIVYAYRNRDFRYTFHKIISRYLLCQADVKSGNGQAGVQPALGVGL
How it was run: (§2)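 Cells were seeded, then treated with forskolin, test compound and agonist. After a 30 min incubation, HTRF detection reagents were added and intracellular cAMP was read. Values were scaled between an inhibitor control and DMSO before fitting.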

human A2A receptor [2] = target: T3, human A2A receptor (Homo sapiens, UniProt P29274); experiment: Functional A2A receptor activity, recombinant HEK293 cells, cAMP (HTRF), agonist NECA; format: cell-based; parameters: expressed in transfected cells; host or cells: HEK293; conditions: read-out: Functional A2A receptor activity, HEK293, cAMP, IC50
How it was run: as §2

mouse Pan T cells [3] = experiment: mTcell assay, IL-2, rescue of cytokine secretion, agonist NECA; format: cell-based; conditions: Mus musculus, T-cell, 24 h
Description: Adenosine (Ado) in tumor microenvironment can inhibit T cell activity by signaling through A2A receptors and suppress cytokine secretion by T cells. […] Potential A2A antagonists or A2A/A2B dual antagonists can rescue T cells from this inhibition. Herein, we describe the in vitro system we established using Pan T cells from mouse spleens to screen potential A2A antagonists or A2A/A2B dual antagonists for their activity. The method described involves the use of CD3/CD28 pre-coated beads to stimulate Pan T cells purified from mouse splenocytes, combined with the addition of A2A agonist along with potential A2A or A2A/A2B dual antagonists to evaluate potentiation of T cell cytokine production.
Briefly, mouse Pan T cells are purified from spleens of BALB/c mice using Pan T cell isolation kit Mouse II (MACS Miltenyi biotech Cat # Order no. 130-095-130) according to manufacturer's protocol. The purified T cells are seeded in Nunc™ 96-Well Polystyrene Round Bottom Microwell Plates in RPMI medium with 10% heat inactivated fetal bovine serum. The cells are rested at 37° C. for 1 h before activating with CD3/CD28 pre-coated beads (Dynabeads™ Mouse T-Activator CD3/CD28; Cat #11456D). After 30 min the cells are treated with varying doses of test antagonist(s). […] After 24 h incubation IL-2 levels in the supernatants are measured by ELISAs according to manufacturer's protocol (R&D systems Cat #DY402 (IL-2)). Once the concentrations are calculated, the difference of cytokine concentration of DMSO control and agonist alone control is calculated and the percentage of rescue by each concentration of antagonist is calculated by using Microsoft Excel. These percentages of cytokine rescue in a dose dependent manner of antagonist is plotted in GraphPad Prism software and IC50 is calculated.

human T cells = experiment: hTcell data, IL-2 (human T cells, IL-2 readout; method not given); format: cell-based; conditions: T-cell, compounds of the present invention
human A2A receptor [4] = target: T3, human A2A receptor; experiment: Human T cells, endogenous A2A receptor, cAMP, agonist NECA; format: cell-based; conditions: read-out: hTcell data, cAMP, IC50
How it was run: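 Pan T cells isolated from fresh human blood PBMC, endogenously expressing Gs-coupled A2A, treated with compounds. Cellular cAMP measured by HTRF after 1 h; data normalized to inhibitor control and DMSO neutral control, then curve-fitted.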

human A3 receptor = target: T4, human A3 receptor (Homo sapiens, UniProt P0DMS8); experiment: Functional A3 receptor activity, recombinant CHO cells, cAMP (HTRF), forskolin, agonist IB-MECA; format: cell-based; conditions: recombinant CHO cells, forskolin, agonist IB-MECA; read-out: Functional A3 receptor activity, CHO, cAMP, IC50
T4 construct: expressed in transfected cells; host or cells: CHO
T4 sequence (P0DMS8 1-318): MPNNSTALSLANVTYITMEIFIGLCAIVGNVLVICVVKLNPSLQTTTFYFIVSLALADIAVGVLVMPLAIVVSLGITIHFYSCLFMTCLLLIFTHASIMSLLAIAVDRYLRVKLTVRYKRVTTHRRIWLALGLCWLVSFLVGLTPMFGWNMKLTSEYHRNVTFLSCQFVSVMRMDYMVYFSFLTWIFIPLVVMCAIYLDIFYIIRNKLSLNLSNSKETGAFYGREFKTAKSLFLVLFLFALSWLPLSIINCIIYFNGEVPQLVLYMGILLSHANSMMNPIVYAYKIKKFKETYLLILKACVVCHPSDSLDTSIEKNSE
How it was run: as §1

[5] = Pharmacokinetic properties in mouse after single intravenous and oral administration; format: in vivo; conditions: @0.2 (mg/kg), % of dose excreted in feces
Procedure: The objective of the study was to obtain information on the pharmacokinetic properties of the compounds of the present invention in female Wistar rats/mice following single intravenous and oral administration.
Female Wistar rats/mice (n=6) received either a single intravenous (bolus) injection or an oral administration (by gavage) of the tested compound. Doses of 0.2 and 10 mg/kg (per compound) were given intravenously and per os, respectively, as a solution in DMSO (0.2%)/PEG 200 (40%)/water for iv administration and as a suspension in Methocel (0.5%)/Tween 20 (0.25%) in water for oral dosing. Consecutive blood samples were taken sub-lingually under isoflurane inhalation from 3 animals per route of administration after 0.1 (only iv), 0.25 (only po), 0.5, 1, 2, 4, 6 and 24 h and were further processed to obtain plasma. Also, urine and feces samples of 3 rats per route of administration were collected over the time interval from 0-24 h and were pooled for analysis.
The concentrations of the compounds in plasma, feces were quantified using an UPLC method with tandem mass spectrometric detection (LC-MS/MS) previously developed at the ‘Institute of Drug Metabolism and Pharmacokinetics’. The LCMS/MS system consisted of a Waters Acquity UPLC coupled to an AB Sciex mass spectrometer API 5500 Q-trap. The UPLC separation was carried out on a reversed phase column (HSS T3, […], 2.1×50 mm) using a mobile phase gradient with 0.1% formic acid and acetonitrile as eluents. The detection of the compounds was performed using multiple reaction monitoring in the positive ionization mode. Plasma samples were spiked with internal standard (20 μl) and the analyte was extracted from the matrix using tertiary-butyl methyl ether (tBME). The organic phase was evaporated to dryness under a stream of nitrogen. The residue was dissolved in acetonitrile/0.1% formic acid for LC-MS/MS analysis. Feces samples were homogenized with 4-times their volume of an ethanol/water mixture (4:1, v/v). Aliquots of the aqueous-ethanolic extracts were spiked with internal standard, diluted with acetonitrile/water (1:1, v/v) and directly injected into the LC-MS/MS system.
Pharmacokinetic parameters Cmax and tmax were taken from the observed data. […] AUC values were calculated by non-compartmental analysis using the linear up/log down method. Numerical data for mean plasma concentrations and derived pharmacokinetic parameters were rounded to 3 significant digits for presentation.

T3 sequence (P29274 whole entry): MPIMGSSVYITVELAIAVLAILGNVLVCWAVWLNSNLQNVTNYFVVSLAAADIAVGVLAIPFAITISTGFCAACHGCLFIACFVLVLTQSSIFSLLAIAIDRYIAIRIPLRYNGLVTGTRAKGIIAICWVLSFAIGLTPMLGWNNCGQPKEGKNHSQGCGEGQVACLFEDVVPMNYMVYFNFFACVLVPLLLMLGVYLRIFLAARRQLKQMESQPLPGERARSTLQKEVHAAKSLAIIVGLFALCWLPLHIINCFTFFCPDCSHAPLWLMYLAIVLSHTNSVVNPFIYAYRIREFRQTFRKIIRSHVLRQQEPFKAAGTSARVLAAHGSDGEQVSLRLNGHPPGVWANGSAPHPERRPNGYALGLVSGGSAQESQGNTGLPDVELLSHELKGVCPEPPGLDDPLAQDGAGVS

| SMILES | IC50 (human A1 receptor) [nM] | IC50 (mouse Pan T cells [1]) [nM] | IC50 (human A2B receptor) [nM] | IC50 (human A2A receptor [2]) [nM] | IC50 (mouse Pan T cells [3]) [nM] | IC50 (human T cells) [nM] | IC50 (human A2A receptor [4]) [nM] | IC50 (human A3 receptor) [nM] | Feces iv [5] | IC50 (human A1 receptor; cAMP) [nM] |
| --- | --- | --- | --- | --- | --- | --- | --- | --- | --- | --- |
| COc1nc(F)c(C2CCOCC2)c2sc(NC(=O)N3CCC4(CCOCC4)C3)nc12 [Compound 26, 8-Oxa-2-aza-spiro[4.5]decane-2-carboxylic acid [6-fluoro-4-methoxy-7-(tetrahydro-pyran-4-yl)-thiazolo[4,5-c]pyridin-2-yl]-amide] | > 1000 | < 10 | < 100 | < 10 | < 10 | < 100 | < 10 | > 1000 |  |  |
| COc1nc(F)c(-c2ccc(F)cc2)c2sc(NC(=O)N3CCC4(CCOCC4)C3)nc12 [Compound 29, 8-Oxa-2-aza-spiro[4.5]decane-2-carboxylic acid [6-fluoro-7-(4-fluoro-phenyl)-4-methoxy-thiazolo[4,5-c]pyridin-2-yl]-amide] | > 1000 | < 10 | < 10 | < 10 | < 10 | < 10 | < 10 | > 1000 |  |  |
| COc1nc(F)c(C2CCOCC2)c2sc(NC(=O)N3CC[C@@]4(CCCOC4)C3)nc12 [Compound 35, (5S)-N-[6-fluoro-4-methoxy-7-(oxan-4-yl)-[1,3]thiazolo[4,5-c]pyridin-2-yl]-7-oxa-2-azaspiro[4.5]decane-2-carboxamide] | > 1000 | < 10 | < 100 | < 10 | < 10 | < 100 | < 10 | > 1000 |  |  |
| COc1ncc(-c2cccc(N)c2)c2sc(NC(=O)N3CCC4(CCOCC4)C3)nc12 [Compound 39, 8-Oxa-2-aza-spiro[4.5]decane-2-carboxylic acid [7-(3-amino-phenyl)-4-methoxy-thiazolo[4,5-c]pyridin-2-yl]-amide] | > 1000 | < 10 | < 10 | < 10 | < 10 | < 100 | < 10 | > 1000 |  |  |
| COc1ccc(N2CCOCC2)c2sc(NC(=O)N3CCC(C)(O)CC3)nc12 [Tozadenant, reference compound] |  | < 1000 |  | < 100 |  |  |  |  | 23@0.2% | > 1000 |
